Among the data in patent publication US20140179664A1, “Heterocyclyl Pyrimidine Analogues As JAK Inhibitors” (Cellzome Limited, priority 2011, published 2014) are IC50 values, retold here.

Bounds are passed on as bounds.

Type in all cases: binding
In one assay the target is T1, JAK2 (Homo sapiens, UniProt O60674).
T1 construct: endogenous in cells; host or cells: Molt4 (ATCC CRL-1582) and Ramos (ATCC CRL-1596), mixed lysate 1:2
Put plainly: Kinobeads assay, JAK2. The following applies: mixed Molt4/Ramos lysate, read-out: Inhibition values (IC50) JAK2. The method, boiled down:
(§1)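 IC50s come from capture competition: compound at various concentrations versus an immobilized aminopyrido-pyrimidine ligand for kinases in 1:2 Molt4/Ramos lysate (10 mg/mL), 3 h in a cold room. Captured JAK-family kinases were measured by specific-antibody dot blot with Odyssey infrared detection.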

The target in another assay is T2, JAK3 (Homo sapiens, UniProt P52333).
T2 construct: endogenous in cells; host or cells: Molt4 (ATCC CRL-1582) and Ramos (ATCC CRL-1596), mixed lysate 1:2
T2 sequence (P52333 1-1124): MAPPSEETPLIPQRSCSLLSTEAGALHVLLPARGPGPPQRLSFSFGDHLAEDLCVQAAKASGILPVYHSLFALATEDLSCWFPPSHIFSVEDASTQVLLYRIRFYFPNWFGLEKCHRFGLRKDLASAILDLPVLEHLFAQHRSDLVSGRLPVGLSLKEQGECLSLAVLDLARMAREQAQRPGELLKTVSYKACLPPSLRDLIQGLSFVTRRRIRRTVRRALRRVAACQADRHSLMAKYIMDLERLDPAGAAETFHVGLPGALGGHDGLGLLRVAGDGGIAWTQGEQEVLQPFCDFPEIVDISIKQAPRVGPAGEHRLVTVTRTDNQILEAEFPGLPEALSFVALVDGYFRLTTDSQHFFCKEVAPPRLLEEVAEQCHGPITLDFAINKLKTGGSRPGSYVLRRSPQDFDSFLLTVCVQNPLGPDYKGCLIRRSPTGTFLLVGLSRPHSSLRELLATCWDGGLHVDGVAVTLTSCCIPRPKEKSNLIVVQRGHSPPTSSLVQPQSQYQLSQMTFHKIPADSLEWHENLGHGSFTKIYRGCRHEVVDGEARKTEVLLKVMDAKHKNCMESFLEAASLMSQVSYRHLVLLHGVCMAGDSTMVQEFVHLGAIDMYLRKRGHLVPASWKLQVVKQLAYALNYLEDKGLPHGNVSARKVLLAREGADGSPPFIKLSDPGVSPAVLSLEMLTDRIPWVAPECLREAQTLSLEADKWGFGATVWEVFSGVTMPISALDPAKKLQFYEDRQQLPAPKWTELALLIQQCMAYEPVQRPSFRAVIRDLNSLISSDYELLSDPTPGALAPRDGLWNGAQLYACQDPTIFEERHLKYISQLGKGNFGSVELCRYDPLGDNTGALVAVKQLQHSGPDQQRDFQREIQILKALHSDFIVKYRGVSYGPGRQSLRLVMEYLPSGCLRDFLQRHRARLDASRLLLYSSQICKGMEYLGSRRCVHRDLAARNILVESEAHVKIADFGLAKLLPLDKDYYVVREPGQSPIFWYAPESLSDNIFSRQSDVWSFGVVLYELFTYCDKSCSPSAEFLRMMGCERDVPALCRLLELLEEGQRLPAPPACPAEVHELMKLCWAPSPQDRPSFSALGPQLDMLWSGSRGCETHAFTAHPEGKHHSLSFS
Description: Kinobeads assay, JAK3. To be noted: mixed Molt4/Ramos lysate, read-out: Inhibition values (IC50) JAK3. The essentials:
as §1

The target of the next assay is T3, TYK2 (Homo sapiens, UniProt P29597).
T3 construct: endogenous in cells; host or cells: Molt4 (ATCC CRL-1582) and Ramos (ATCC CRL-1596), mixed lysate 1:2
T3 sequence (P29597 whole entry): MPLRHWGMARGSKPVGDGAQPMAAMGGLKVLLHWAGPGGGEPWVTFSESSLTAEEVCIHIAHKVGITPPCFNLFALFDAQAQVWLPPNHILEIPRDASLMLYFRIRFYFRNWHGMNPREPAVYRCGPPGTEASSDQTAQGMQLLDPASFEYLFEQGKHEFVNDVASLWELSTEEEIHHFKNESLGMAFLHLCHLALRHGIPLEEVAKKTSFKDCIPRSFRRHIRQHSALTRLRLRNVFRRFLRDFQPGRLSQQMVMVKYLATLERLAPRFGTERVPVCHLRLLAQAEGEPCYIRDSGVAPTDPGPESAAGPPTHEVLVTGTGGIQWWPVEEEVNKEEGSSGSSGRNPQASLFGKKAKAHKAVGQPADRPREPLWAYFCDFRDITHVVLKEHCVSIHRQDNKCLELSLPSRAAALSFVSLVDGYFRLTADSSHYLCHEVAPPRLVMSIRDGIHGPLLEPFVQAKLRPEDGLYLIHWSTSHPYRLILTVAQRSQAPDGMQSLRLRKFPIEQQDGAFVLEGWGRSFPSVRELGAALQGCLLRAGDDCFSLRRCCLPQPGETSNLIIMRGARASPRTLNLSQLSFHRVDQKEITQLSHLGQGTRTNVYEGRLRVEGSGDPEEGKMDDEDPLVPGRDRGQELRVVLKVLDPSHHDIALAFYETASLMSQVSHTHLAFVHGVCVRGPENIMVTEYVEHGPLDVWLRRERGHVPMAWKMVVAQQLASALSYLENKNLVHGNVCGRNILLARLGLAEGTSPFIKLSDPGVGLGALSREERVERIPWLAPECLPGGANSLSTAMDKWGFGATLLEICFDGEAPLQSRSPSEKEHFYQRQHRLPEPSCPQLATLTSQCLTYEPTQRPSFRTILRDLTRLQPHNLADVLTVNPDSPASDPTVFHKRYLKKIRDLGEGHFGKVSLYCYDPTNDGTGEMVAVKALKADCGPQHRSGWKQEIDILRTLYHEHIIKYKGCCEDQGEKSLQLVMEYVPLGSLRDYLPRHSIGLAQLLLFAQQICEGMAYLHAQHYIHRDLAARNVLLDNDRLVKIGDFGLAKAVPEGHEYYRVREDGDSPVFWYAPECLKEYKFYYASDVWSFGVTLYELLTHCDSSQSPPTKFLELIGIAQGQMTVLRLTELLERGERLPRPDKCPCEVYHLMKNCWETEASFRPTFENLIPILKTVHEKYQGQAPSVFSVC
Description: Kinobeads assay, TYK2. The following applies: mixed Molt4/Ramos lysate, read-out: Inhibition values (IC50) TYK2. The essentials: as §1

T1 sequence (O60674 whole entry): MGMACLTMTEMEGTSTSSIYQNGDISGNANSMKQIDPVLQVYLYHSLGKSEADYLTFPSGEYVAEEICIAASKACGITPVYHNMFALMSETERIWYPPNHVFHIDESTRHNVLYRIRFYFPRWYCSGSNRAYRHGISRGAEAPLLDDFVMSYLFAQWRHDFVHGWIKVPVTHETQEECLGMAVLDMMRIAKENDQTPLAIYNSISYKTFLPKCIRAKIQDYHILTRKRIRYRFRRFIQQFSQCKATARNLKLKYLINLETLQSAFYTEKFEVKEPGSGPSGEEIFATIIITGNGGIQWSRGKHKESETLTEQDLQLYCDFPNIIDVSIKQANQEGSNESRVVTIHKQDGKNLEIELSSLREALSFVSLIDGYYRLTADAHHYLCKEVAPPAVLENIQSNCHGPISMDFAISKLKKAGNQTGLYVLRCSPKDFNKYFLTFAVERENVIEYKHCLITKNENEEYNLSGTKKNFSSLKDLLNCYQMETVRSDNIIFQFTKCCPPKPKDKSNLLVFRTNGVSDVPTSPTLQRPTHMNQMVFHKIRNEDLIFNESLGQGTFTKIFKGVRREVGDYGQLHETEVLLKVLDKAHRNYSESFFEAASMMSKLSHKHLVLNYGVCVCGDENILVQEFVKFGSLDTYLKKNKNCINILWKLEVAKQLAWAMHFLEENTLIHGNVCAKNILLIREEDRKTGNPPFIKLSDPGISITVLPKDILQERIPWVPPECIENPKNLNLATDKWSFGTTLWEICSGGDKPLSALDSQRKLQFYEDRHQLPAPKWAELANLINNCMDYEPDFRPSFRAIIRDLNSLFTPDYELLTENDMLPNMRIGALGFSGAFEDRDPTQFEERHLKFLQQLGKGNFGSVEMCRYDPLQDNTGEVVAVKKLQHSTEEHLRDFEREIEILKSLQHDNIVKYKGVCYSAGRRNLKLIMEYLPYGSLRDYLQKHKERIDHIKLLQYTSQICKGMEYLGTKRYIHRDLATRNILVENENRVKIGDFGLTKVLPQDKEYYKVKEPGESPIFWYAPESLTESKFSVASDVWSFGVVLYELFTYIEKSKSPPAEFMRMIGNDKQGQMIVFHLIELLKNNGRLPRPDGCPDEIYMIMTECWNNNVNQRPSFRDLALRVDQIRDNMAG

Regarding `OCCn1cc(Nc2ncc(Cl)c(N[C@@H](CO)c3ccccc3)n2)cn1` [Compound 63], the IC50 – broadly, the midpoint of a concentration-inhibition curve – is not below 10000 nM on JAK2, 1000 to 10000 nM on JAK3 and 1000 to 10000 nM at TYK2.

With `OCCCn1cc(Nc2ncc(Cl)c(NC(CO)c3ccccc3F)n2)cn1` (stereo not drawn) [Compound 64], the IC50 on JAK2 is 1000 to 10000 nM; at JAK3, less than 100 nM; at TYK2, 1000 to 10000 nM.

For the molecule `OCC[C@@H](Nc1nc(Nc2cnn(CCO)c2)ncc1Cl)c1ccccc1` [Compound 65], the values for the IC50 on JAK2, on JAK3 and at TYK2 were 1000 to 10000 nM, 100 to 1000 nM and 1000 to 10000 nM, respectively.

As for `CNC(=O)Cn1cc(Nc2ncc(Cl)c(N[C@H](CCO)c3ccccc3)n2)cn1` [Compound 66], the IC50 at JAK2 was 1000 to 10000 nM; at JAK3, 100 to 1000 nM; at TYK2 it was 1000 to 10000 nM.

Consider `CC(C)NC(=O)Cn1cc(Nc2ncc(Cl)c(N[C@H](CO)c3ccccc3)n2)cn1` [Compound 67], for which the IC50 was 1000 to 10000 nM on JAK2, less than 100 nM on JAK3 and 100 to 1000 nM on TYK2.

As for `O=C(Cn1cc(Nc2ncc(Cl)c(N[C@H](CO)c3ccccc3)n2)cn1)NC1CC1` [Compound 68], the IC50 at JAK2 was 1000 to 10000 nM; on JAK3 it was less than 100 nM; at TYK2, 100 to 1000 nM.

Consider `Cn1cc(Nc2ncc(Cl)c(NC(CO)c3cccc(-c4cnn(C)c4)c3)n2)cn1` (stereo not drawn) [Compound 69], for which the IC50 at JAK2 was not below 10000 nM; at JAK3 it was 100 to 1000 nM; on TYK2, not below 10000 nM.

With `CN(CC#N)C(=O)Cn1cc(Nc2ncc(Cl)c(N[C@H](CO)c3ccccc3)n2)cn1` [Compound 70], the results for the IC50 at JAK2, at JAK3 and at TYK2 were 1000 to 10000 nM, less than 100 nM and 100 to 1000 nM, respectively.

For the molecule `Cn1cc(Nc2ncc(Cl)c(NC(CO)c3ccc(F)cc3)n2)cn1` (stereo not drawn) [Compound 71], the IC50 on JAK2 was not below 10000 nM; on JAK3, 100 to 1000 nM; at TYK2, 1000 to 10000 nM.

As to `OCCn1cc(Nc2ncc(Cl)c(NC(CO)c3ccc(F)cc3)n2)cn1` (stereo not drawn) [Compound 72], the results for the IC50 at JAK2, at JAK3 and on TYK2 were not below 10000 nM, 100 to 1000 nM and 1000 to 10000 nM, respectively.

In the case of `CC(C)(C(N)=O)n1cc(Nc2ncc(Cl)c(N[C@H](CO)c3ccccc3F)n2)cn1` [Compound 73], the IC50 on JAK2 is 1000 to 10000 nM; at JAK3 it was less than 100 nM; on TYK2 it was 1000 to 10000 nM.

Take `COc1ccccc1[C@@H](CO)Nc1nc(Nc2cnn(C)c2)ncc1Cl` [Compound 74]: the results for the IC50 at JAK2, on JAK3 and on TYK2 were 1000 to 10000 nM, less than 100 nM and 1000 to 10000 nM, respectively.

As to `OC[C@@H](Nc1nc(Nc2cn[nH]c2)ncc1Cl)c1ccccc1` [Compound 75], the results for the IC50 on JAK2, at JAK3 and on TYK2 were 1000 to 10000 nM, less than 100 nM and 1000 to 10000 nM, respectively.

`COc1ccccc1[C@@H](CO)Nc1nc(Nc2cnn(CCO)c2)ncc1Cl` [Compound 76]: the results for the IC50 on JAK2, at JAK3 and on TYK2 were 1000 to 10000 nM, less than 100 nM and 100 to 1000 nM, respectively.

On to `OCCn1cc(Nc2ncc(Cl)c(N[C@H](CO)c3ccccc3F)n2)cn1` [Compound 77], for which the IC50 on JAK2 is 1000 to 10000 nM; on JAK3, less than 100 nM; on TYK2 it was 100 to 1000 nM.

In the case of `NC(=O)Cn1cc(Nc2ncc(Cl)c(N[C@H](CO)c3ccccc3F)n2)cn1` [Compound 78], the IC50 at JAK2 was 1000 to 10000 nM; on JAK3 it was less than 100 nM; on TYK2, 100 to 1000 nM.

For `OC[C@@H](Nc1nc(Nc2cn[nH]c2)ncc1Cl)c1ccccc1F` [Compound 79], the IC50 is 1000 to 10000 nM on JAK2, less than 100 nM at JAK3 and 1000 to 10000 nM at TYK2.

As for `OCCn1cc(Nc2ncc(Cl)c(N[C@H](CO)c3ccccn3)n2)cn1` [Compound 80], the IC50 at JAK2 is 1000 to 10000 nM; at JAK3, less than 100 nM; at TYK2, 100 to 1000 nM.

As for `NC(=O)Cn1cc(Nc2ncc(Cl)c(N[C@H](CO)c3ccccn3)n2)cn1` [Compound 81], the IC50 at JAK2 is 1000 to 10000 nM; on JAK3, less than 100 nM; on TYK2, 100 to 1000 nM.

`COc1cccc([C@@H](CO)Nc2nc(Nc3cnn(C)c3)ncc2Cl)c1` [Compound 82]: the IC50 is not below 10000 nM at JAK2, less than 100 nM at JAK3 and 1000 to 10000 nM at TYK2.

With `COc1cccc([C@@H](CO)Nc2nc(Nc3cnn(CCO)c3)ncc2Cl)c1` [Compound 83], the IC50 on JAK2 is 1000 to 10000 nM; at JAK3, less than 100 nM; at TYK2 it was 1000 to 10000 nM.

Consider `COc1cccc([C@@H](CO)Nc2nc(Nc3cnn(CC(N)=O)c3)ncc2Cl)c1` [Compound 84], for which the IC50 at JAK2 is not below 10000 nM; on JAK3, less than 100 nM; at TYK2, 1000 to 10000 nM.

Regarding `Cc1cnc(Nc2cnn(CC(F)F)c2)nc1N[C@H](CO)c1cc(F)cc(F)c1` [Compound 167], the IC50 at JAK2 lay within 1000 to 10000 nM; on JAK3 it was 100 to 1000 nM; on TYK2, 1000 to 10000 nM.

For the molecule `Cc1cnc(Nc2cnn(CC(F)F)c2)nc1NC(CO)c1c(F)cccc1F` (stereo not drawn) [Compound 168], the IC50 on JAK2 is not below 10000 nM; on JAK3, 100 to 1000 nM; at TYK2, 1000 to 10000 nM.

As for `Cc1cnc(Nc2cnn(CC(=O)N3CCOCC3)c2)nc1NC(CO)c1c(F)cccc1F` (stereo not drawn) [Compound 169], the IC50 is 1000 to 10000 nM on JAK2, less than 100 nM on JAK3 and 100 to 1000 nM at TYK2.

For `CNC(=O)Cn1cc(Nc2ncc(Cl)c(N[C@H](CO)c3cccnc3)n2)cn1` [Compound 170], the values for the IC50 on JAK2, at JAK3 and on TYK2 were 1000 to 10000 nM, less than 100 nM and 1000 to 10000 nM, respectively.
